From patent US11072592B2, “Small molecules that enable cartilage rejuvenation” (The Regents of the University of California, priority 2015, dated 2021)
Entries after “also recorded” stand apart in the source; their conditions may differ.

Legend:
[1] = tested on: adult human articular chondrocytes; test: Transwell migration assay, adult human articular chondrocytes; type: cell-based
Experimental: Cells were plated on Millicell 8 μm Transwell® inserts (Millipore, Billerica, Mass.) in 12-well plates (Fisher Scientific, Pittsburgh, Pa.) and stimulated with 10 μM of RCGD 423, 10 μM MYC inhibitor (10058-F4) or 10 μM STAT3 inhibitor (STATTIC) from Tocris Bioscience (Bristol, UK). Cells that migrated across the membranes were quantified by counting after 48 hours of treatment.

[2] = tested on: MMP13, ADAMTS4 and ADAMTS5; test: Quantitative PCR of catabolic genes in adult pig articular chondrocytes; type: cell-based
Experimental: (§1) FIGS. 30A-30B. […] (FIG. 30A) Adult pig articular chondrocytes were cultured for 24 hours with the indicated cytokines or RCGD 423 and the levels of pSTAT3 and MYC were measured with respect to histone H3. Representative data for other proteins in the MAPK (p38 and MEK1/2), AKT (phospho-AKT; pAKT) or NF-KB (NF-KB p65) are also shown. (FIG. 30B) Levels of transcription of genes indicative of a catabolic response were determined via quantitative PCR in adult pig articular chondrocytes treated with OSM, IL-6, TNF-α, LIF or RCGD 423. Data are represented at mean±SD.
(§2) Cartilage degeneration is generally considered a feed-forward process, in which small losses of chondrocytes result in microenvironmental changes including induction of an inflammatory response and other pro-catabolic events (Hunziker, 2002). In turn, these alterations in the joint milieu promote production of matrix degrading proteins including MMPs (collagenases) and proteins of the ADAMTS family (aggrecanases). LIF has been implicated in promoting this cycle of matrix destruction during the pathogenesis of osteoarthritis (Hui et al., 2000; Lotz et al., 1992), although its role in this process has been controversial. In order to better understand the mechanism of action of LIF, RCGD 423 and known pro-inflammatory cytokines in the promotion of degeneration, we stimulated adult pig articular chondrocytes with these molecules and quantitated the levels of activated downstream proteins that mediate the cellular signaling response (FIG. 30A).
Total RNA was extracted using RNeasy Micro Kit (QIAGEN, Valencia, Calif.) according to the manufacturer's protocol. Quantitative reverse transcription PCR was performed using Bio-Rad T100 Thermal Cycler (Bio-Rad, Hercules, Calif.). Primer sequences are available upon request.

[3] = tested on: MAPK, AKT, NF-κB pathways; test: Western blot of MAPK, AKT and NF-κB signaling in adult pig articular chondrocytes; type: cell-based; details: 24 hours
Experimental: as §1, §2
(§3) Treated and non-treated ells were lysed in RIPA Lysis and Extraction Buffer (Pierce, Rockford, Ill.) containing protease inhibitors (Pierce) followed by sonication with a 15-second pulse at a power output of 2 using the VirSonic 100 (SP Industries Company, Warminster, Pa.). Protein concentrations were determined by BCA protein assay (Pierce). Proteins were resolved with SDS-PAGE utilizing 4-15% Mini-PROTEAN TGX Precast Gels and transferred to Trans-Blot Turbo Transfer Packs with a 0.2-μm pore-size nitrocellulose membrane. The SDS-PAGE running buffer, 4-15% Mini-PROTEAN TGX Precast Gels, Trans-Blot Turbo Transfer Packs with a 0.2-μm pore-size nitrocellulose membrane were purchased from Biorad (Hercules, Calif.). Nitrocellulose membranes were blocked in 5% nonfat milk in 0.05% (v/v) Tween 20 (PBST) (Corning, Manassas, Va.). Membranes were then incubated with primary antibodies phospho-STAT3 (#9131), MYC (#5605), NF-κB p65 (#D14E12), pAKT (#9272) Histone 3 (#9715) from Cell Signaling, (Danvers, Mass.); MEK1/2 (ab70613) and p38 (ab795) from Abcam (Cambridge, Mass.) overnight. After washing in PBS containing 0.05% (v/v) Tween 20 (PBST), membranes were incubated with Goat anti-Rabbit IgG (H+L) Secondary Antibody (Thermo Scientific Rockford, Ill.). After washing, membranes were developed with the Clarity Western ECL Blotting Substrate (Hercules, Calif.).

[4] = tested on: pSTAT3 and MYC; test: Western blot of pSTAT3 and MYC in adult pig articular chondrocytes; type: cell-based; details: for levels of MYC / levels of pSTAT3: adult pig articular chondrocytes, treated vs untreated, relative to histone H3
From the text: Only early passages of chondrocytes (passage 0-2) were used for experimentation to avoid de-differentiation and loss of cartilage phenotype (Wu et al., 2014). Cartilage explants were made using 1, 2 or 8 mm biopsy punch and wet weight of each explant determined prior to experimentation. For cell isolation cartilage tissue was digested as described previously (Wu et al., 2015). Postnatal paraffin embedded joint and growth plate specimens were kindly donated by Dr Marcel Karperien from the University of Twente (Netherlands) and Dr Nick Bernthal from University of California Los Angeles. All donated material was anonymous and carried no personal identifiers. Cell culture reagents were purchased from Life Technologies, Inc. (Grand Island, N.Y.). Growth factors LIF, OSM, IL-6, TNF-α, IL-1β were purchased from Life Technologies, Inc (Grand Island, N.Y.). STATTIC, 10058-F4, SCl44 hydrochloride, and CP-690550 were purchased from Sigma Aldrich (St. Louis, Mo.). RCGD 423 (N-(4-Bromophenyl)-4-phenyl-1,3-thiazol-2-amine) was synthesized and provided by MolPort (Riga, Latvia). Fetal, adult and pig chondrocytes were cultured in DMEM F12 medium containing 10% (vol/vol) fetal bovine serum and 1% Penicillin-Streptomycin (vol/vol) at 37° C. in a humidified atmosphere of 95% aid and 5% CO2. Media was replenished with DMEM F12 medium containing 1% (vol/vol) fetal bovine serum and 1% Penicillin-Streptomycin (vol/vol) once treatments were added. For 3-dimensional (3D) cell cultures adult human articular chondrocytes were incubated with or without RCGD 423 using 10% solution of Mebiol® hydrogel from Cosmo Bio (Carlsbad, Calif.) in X-vivo 15 serum free medium from Lonza (Walkersville, Md.) as described previously (Wu et al., 2014).
as §3

[5] = tested on: BMPR1B+ chondrocytes; test: Retention of BMPR1B+ chondrocytes in culture (flow cytometry); type: cell-based, pig
Experimental: FIG. 35. RCGD 423 Preserves BMPR1B+ Chondrocytes in Culture. Adult pig chondrocytes were cultured in the presence of various cytokines or RCGD 423 and the number of cells expressing BMPR1B were quantitated using flow cytometry. Know mitogens for cartilage, including PDGF-BB and FGF2, promoted dramatic loss of BMPR1B^+ cells. In contrast, RCGD 423 and LIF acted to maintain cells with the BMPR1B+ phenotype.
BMPR1B+LIFR+ human adult articular chondrocytes were sorted using FACS and deposited in 96-well culture plates at density 10,000 cells per well in DMEM/F12 culture medium (Invitrogen) supplemented with 1% FBS. Growth factors or RCGD 423 were added at the time of plating. After 1, 3 and 7 days cultures were re-analyzed with FACS using an antibody against BMPR1B.

[6] = pig adult articular chondrocytes, 1 μM

| Compound | migration / migratory potential [1] | transcription of matrix degrading enzymes (MMP13, ADAMTS4 and ADAMTS5) [2] | activation of AKT [3] | activation of the MAPK pathway [3] | levels of MYC [4] | levels of pSTAT3 [4] | NF-κB protein [3] | BMPR1B+ chondrocytes in culture [5] | levels of c-MYC [4, 6] | levels of p-STAT3 [4, 6] |
| --- | --- | --- | --- | --- | --- | --- | --- | --- | --- | --- |
| LIF: interleukin 6 (IL-6)-class cytokine | increased | neither cytokine resulted in substantial transcriptional upregulation | stimulated the activation; also recorded: strong activation | weaker response | increase | increase | – | – | – | – |
| Brc1ccc(Nc2nc(-c3ccccc3)cs2)cc1 [RCGD 423, N-(4-Bromophenyl)-4-phenyl-1,3-thiazol-2-amine] | increased | no upregulation; also recorded: does not promote catabolism | did not activate; also recorded: no activation | weakly activating | strong increases | strong increases | did not activate AKT or stabilize | helped maintain | elevated | elevated |
